ChEMBL document CHEMBL1201862, “PubChem BioAssay data set” (2004)
Activity calls are given as the source filed them. Rule as the data show it: actives have a measured IC50 and inactives only a lower limit.

Molecular target: Envelope glycoprotein gp160 (Human immunodeficiency virus 1, UniProt Q6QLK5)
Test: cell-free HIV fusion peptide-binding blockers – biochemical, uHTS, fluorescence dequenching, […] (AID 1986)

Chain of Envelope glycoprotein gp160 (Q6QLK5 whole entry, the tested form may be a part): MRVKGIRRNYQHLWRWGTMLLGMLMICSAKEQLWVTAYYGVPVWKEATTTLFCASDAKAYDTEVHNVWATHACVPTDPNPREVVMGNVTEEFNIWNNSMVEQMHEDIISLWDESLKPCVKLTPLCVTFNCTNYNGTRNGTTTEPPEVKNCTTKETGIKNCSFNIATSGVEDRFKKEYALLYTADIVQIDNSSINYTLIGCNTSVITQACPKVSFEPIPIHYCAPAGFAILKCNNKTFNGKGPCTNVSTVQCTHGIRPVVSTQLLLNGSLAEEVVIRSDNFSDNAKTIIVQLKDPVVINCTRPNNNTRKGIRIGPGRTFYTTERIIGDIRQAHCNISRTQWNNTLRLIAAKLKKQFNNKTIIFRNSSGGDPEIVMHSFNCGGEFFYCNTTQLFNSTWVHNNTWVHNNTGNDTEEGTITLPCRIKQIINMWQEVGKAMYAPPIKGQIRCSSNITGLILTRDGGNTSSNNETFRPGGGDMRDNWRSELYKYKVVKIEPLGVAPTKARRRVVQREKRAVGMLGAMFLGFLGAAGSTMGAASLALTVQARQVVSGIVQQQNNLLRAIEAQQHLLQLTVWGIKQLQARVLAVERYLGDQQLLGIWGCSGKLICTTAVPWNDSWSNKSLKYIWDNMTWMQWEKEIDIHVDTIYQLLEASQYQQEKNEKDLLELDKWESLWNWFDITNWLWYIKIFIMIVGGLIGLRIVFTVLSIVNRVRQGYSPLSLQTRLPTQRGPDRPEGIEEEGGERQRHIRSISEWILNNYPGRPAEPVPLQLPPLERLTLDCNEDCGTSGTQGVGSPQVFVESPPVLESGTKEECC

Question: With COc1ccc(C(=O)/C=C/c2ccc(-c3ccccc3)cc2)cc1CSCC(=O)O as the compound, how does the IC50 read?
Answer: 21.5 µM (active)
